Data set [1] addresses T1, β2AR-YFP fusion protein (Homo sapiens, UniProt P07550).
T1 construct: host or cells: U2OS
In words: Confocal imaging of living U2OS cells expressing β2AR-YFP (staining, internalization, competitive displacement, no-wash). It counts as cell-based. Particulars: for Receptor internalization / Staining performance: U2OS cells expressing β2AR-YFP; for Staining performance: 610CP ligands at 1.9 µM (19) and 2.5 µM (16); for Competitive displacement: 100 nM probe (5 nM ab118171) with 10 µM unlabeled BI-167107 or carazolol, 30 min. As to the method:
U2OS cells (ATCC) were cultured in high-glucose DMEM (Dulbecco’s Modified Eagle medium, Thermo Fisher Scientific) supplemented with GlutaMAX-1 (Thermo Fisher Scientific) and 10% fetal bovine serum (FBS) (Thermo Fisher Scientific) in a humidified 5% CO2 incubator at 37 °C. CAPAN-1 cells (ATCC) were cultured in McCoy’s 5a Medium Modified supplemented with 10% fetal bovine serum (FBS) (Thermo Fisher Scientific) in a humidified 5% CO2 atmosphere at 37 °C. Cells were split every 3–5 days or at confluence. Cells were seeded in glass bottom 12-well plates (MatTek Corporation). […] We used 200,000 cells per well, 3 µg plasmid DNA and 3 µl of Lipofectamine 2000.
We performed imaging 48–72 h after transfection. Staining of the transfected cell was performed in Hanks’ balanced salt solution (HBSS, Lonza) without Phenol Red for 30–40 min at room temperature (to minimize internalization). Samples were washed two times with HBSS, and cells were imaged in DMEM (Thermo Fisher Scientific) supplemented with GlutaMAX-1 (Thermo Fisher Scientific) and 10% fetal bovine serum (FBS). For all staining experiments with cells, stock solutions of dyes in DMSO were used, and final DMSO content was < 0.5%. Imaging was performed on Leica SP8 (Leica Microsystems) or Abberior STED (Abberior Instruments GmbH) microscopes.
Competitive displacement experiment was performed in living U2OS cells expressing β2AR-YFP fusion protein.
Confocal imaging was performed on a Leica SP8 (Leica Microsystems, Mannheim, Germany) inverted confocal microscope equipped with an HC PL APO CS2 63x/1.40 Oil objective. Images were acquired using a 700 Hz bidirectional scanner, pixel size of 70 nm × 70 nm, pinhole of 95.6 µm diameter(1 AU) and frame averaging of 2.

The nature of data set [2]: Fluorescence increase upon addition of SDS to probe solutions. It counts as physicochemical. As to conditions: addition of 0.1% SDS to ligand in PBS pH 7.4 with 1 mg/ml BSA; mean ± SD, n=3. As to the method: Fluorescence spectra of 1 µM solution of fluorescent dyes and ligands in PBS pH 7.4, PBS pH 7.4 + 1 mg/ml BSA (Sigma) and with or without 0.1% SDS (Acros Organics) were recorded on a multiwell plate reader Spark 20 M (Tecan) in half-area black 96-well plates (Greiner Bio-One, cat. 675076) at room temperature (25 °C) after 2 h incubation. Fluorescence emission was recorded from 600 nm to 800 nm with excitation at 580 nm. The emission bandwidth for all measurements was set to 5 nm. The spectra were averaged from 3 individual experiments. Ratios F(BSA+SDS)/F(BSA) of fluorescence signals at 635 nm for 610CP, 645 nm for BODIPY 630/650-X and 655 nm for KK114 conjugates were calculated. The obtained results are summarized (Table 1 and Supplementary Fig. 7).

Another data set deals with β2AR (Homo sapiens, UniProt P07550). In words: cAMP FRET sensor assay, competitive displacement of isoprenaline by antagonists in HEK293 cells. The data set is classed as cell-based. As to the method: The culture was maintained by subculturing the cells every 4 to 5 days using the standard trypsinization procedure. Before measurements, cells were trypsinated and transferred in a 96-well glass bottom plate (MatTek Corporation; Cat. No. P96GC-1.5–5-F) to contain 10,000–30,000 cells per well in 200 µL of DMEM media. After 24 h incubation in 5% CO2 at 37 °C, the cells were washed with HBSS pH 7.2 (200 µL), and the wells were filled with 200 µL HBSS. The DMSO stock solutions of the fluorescent probes were diluted 5,000 times in HBSS and used in experiments. In the antagonist inhibition experiment, we used β1 and β2 adrenoceptor agonist isoprenaline (abcr GmbH) as a positive control causing cAMP elevation. […] The fluorescent ligand solutions of different concentrations in HBSS were premixed with the isoprenaline solution. 50 µL of a final solution was added to each well and the measurement was started upon addition and continued for 1 h in 10 min intervals between the readouts (inclusive).
Sequence of β2AR (P07550 whole entry): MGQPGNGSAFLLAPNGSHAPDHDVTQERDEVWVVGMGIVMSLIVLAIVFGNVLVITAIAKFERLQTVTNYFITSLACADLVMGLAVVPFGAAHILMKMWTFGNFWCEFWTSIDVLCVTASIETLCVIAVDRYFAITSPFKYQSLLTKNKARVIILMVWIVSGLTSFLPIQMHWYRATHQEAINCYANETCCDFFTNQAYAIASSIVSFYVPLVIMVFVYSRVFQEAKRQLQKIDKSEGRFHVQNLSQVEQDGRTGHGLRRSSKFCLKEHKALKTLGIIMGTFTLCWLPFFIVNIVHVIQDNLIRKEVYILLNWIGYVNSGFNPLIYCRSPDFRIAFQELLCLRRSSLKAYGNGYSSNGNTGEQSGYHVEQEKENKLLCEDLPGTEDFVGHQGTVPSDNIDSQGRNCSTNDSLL
The ligands were added using an automated pipette to initiate the sensor response. FRET readout from the cAMP sensor was performed on a multiwell plate reader Spark 20 M (Tecan) at room temperature (25 °C). Fluorescence readout amplitudes were calculated from time series for different ligand concentrations, following background subtraction (media only). […] Data were derived from 3 independent experiments and each independent experiment was performed in triplicate.
Sensor response R(CFP/FRET) was calculated using (1):1 R(CFP/FRET)=(FimTurquoise−FbkgmTurquoise)/(FiFRET−FbkgFRET) where F i ^mTurquoise – mTurquoise fluorescence intensity in the wells with cells; F bkg ^mTurquoise - mTurquoise fluorescence intensity in the control wells without cells; F i ^FRET – FRET signal intensity in the wells with cells; F bkg ^FRET – FRET signal intensity in the control wells without cells. For every result, R(CFP/FRET) ratio was normalized to the R(CFP/FRET) response of DMSO sample.
K i ^app were calculated using the Cheng-Prusoff equation (2):2 Kiapp=IC50/[A]/EC50+1 where [A] – concentration of the isoprenaline; IC50 – fitted half maximal inhibitory concentration of labeled antagonist; EC50 – fitted half maximal response concentration of isoprenaline.

The target of data set [3] is T1, β2AR-YFP fusion protein. In words: Confocal imaging of living U2OS cells expressing β2AR-YFP (staining, internalization, competitive displacement, no-wash). The data set is classed as cell-based. As to conditions: 90 min, 100 nM carazolol-KK114 (24), 5 nM ab118171, no washing.

Read-outs that look alike come from different tables or passages of the source.

T1 sequence (P07550 whole entry, the tested form may be a part): as the sequence (P07550 whole entry) above

With `Cc1c(CCC(=O)NCCOCCOCCNC(=O)CCN(C)C(=O)c2c(F)c(F)c(F)c(F)c2C2=c3cc4c5c(c3Oc3c2cc2c6c3CCCN6C(C)(C)C=C2CS(=O)(=O)O)CCC[N+]=5C(C)(C)C=C4CS(=O)(=O)[O-])cccc1CC(C)(C)NCC(O)c1ccc(O)c2c1OCC(=O)N2` (stereo not drawn) [BI-PEG-KK114 (18)], on β2AR-YFP fusion protein [1], the Receptor internalization entry was “triggered extensive βAR internalization and Yes”; the Staining performance entry is given as “Strong”. Further, the Competitive displacement result on β2AR-YFP fusion protein [1] (U2OS β2AR-YFP) was “no signal and Yes”. Further, the “confocal staining at 100 nM” value on β2AR-YFP fusion protein [1] (U2OS β2AR-YFP, 100 nM, 40 min, room temperature, washed) was “performed well”. Further, the “confocal staining at 250 nM” value at β2AR-YFP fusion protein [1] (U2OS β2AR-YFP, 250 nM, 40 min, room temperature, washed) is recorded as “performed well”. Further, the “Fluorescence increase (F BSA+SDS / F BSA)” value in data set [2] came to 1.4±0.1.

One may read the IC50 as the midpoint of a concentration-inhibition curve. With `CN(CCC(=O)NCCOCCOCCOCCOCCC(=O)NCCC(C)(C)NCC(O)COc1cccc2[nH]c3ccccc3c12)C(=O)c1c(F)c(F)c(F)c(F)c1C1=c2cc3c4c(c2Oc2c1cc1c5c2CCCN5C(C)(C)C=C1CS(=O)(=O)O)CCC[N+]=4C(C)(C)C=C3CS(=O)(=O)[O-]` (stereo not drawn) [Carazolol-KK114 (24)], the IC50 came out at 444 ± 79 nM on β2AR (17 nM isoprenaline, 30 min incubation time, read-out: IC50) and 2450 ± 494 nM at β2AR (displacement of 17 nM isoprenaline, readout immediately after addition of ligands (0 min), read-out: IC50 (mean ± SD)). For the same compound, the Ki on β2AR (Cheng-Prusoff from IC50 right after addition of ligands, 17 nM isoprenaline, read-out: Ki app (mean ± SD)) was 162 ± 76 nM; at β2AR (measurement 30 min after addition of the ligands, read-out: Ki app), 29.3 ± 15 nM. For the same compound, the values for the Receptor internalization result at β2AR-YFP fusion protein [1] and on β2AR-YFP fusion protein [1] (listed as carazolol-KK114 (24)) were “Weak” and “did not change”, respectively. For the same compound, on β2AR-YFP fusion protein [1], the Staining performance entry was “Strong”. For the same compound, the “confocal staining at all tested concentrations” value at β2AR-YFP fusion protein [1] (U2OS β2AR-YFP, 5 nM, 100 nM, 250 nM, 40 min) is “specific staining”. The Competitive displacement result at β2AR-YFP fusion protein [1] (U2OS β2AR-YFP) is “Yes”; on β2AR-YFP fusion protein [1] (U2OS β2AR-YFP, listed as Carazalol-KK114 (24)), “no background fluorescence”. In addition, the “Fluorescence increase (F BSA+SDS / F BSA)” value in data set [2] is 5.9±1.5. For the same compound, at β2AR-YFP fusion protein [3], the no-wash imaging staining entry is recorded as “specific staining”.

The values above are taken from PMC5614969, “High-Affinity Functional Fluorescent Ligands for Human β-Adrenoceptors” (Scientific Reports, 2017).
